40 molecules from the Deep4Chem optical property database can be followed below.

This data set can be described thus: solvent given as SMILES.

As for `CCCCN1C(=O)C(=CC=C2N(CCCC)c3ccccc3N2CCCC)C(=O)N(CCCC)C1=S`, the absorption maximum was 470 nm (in CCCCCC); 424 nm (in CCO); 431 nm (in CN(C)C=O); 468 nm (in Cc1ccccc1); 461 nm (in ClC(Cl)Cl); 456 nm (in ClCCl).
Molecule `CN(C)c1ccc2c(C(=O)NCc3ccccc3)cc(C(=O)[O-])nc2c1` showed an absorption maximum (in CCO) of 403 nm.
With `Cc1ccc(N(c2ccc(C)cc2)c2ccc3c4cccc5c(N(c6ccc(C)cc6)c6ccc(C)cc6)ccc(c6cccc2c63)c54)cc1`, the absorption maximum is recorded as 506 nm (in C1CCCCC1); 502 nm (in C1CCOC1); 496 nm (in CC#N); 507 nm (in Cc1ccccc1); 473 nm (in ClCCl).
With `COc1cc(OC)cc(C2=C3C(C)=C(I)C(C)=[N+]3[B-](F)(F)n3c(/C=C/c4c[nH]c5ccc([N+](=O)[O-])cc45)c(I)c(C)c32)c1`, the absorption maximum by setting is: (in C1CCOC1) 612 nm; (in CS(C)=O) 622 nm; (in ClCCl) 606 nm.
Take `CC/[NH+]=c1\cc2oc3cc(NCCC(=O)NCC(=O)OC)c4ccccc4c3nc-2cc1C`: the absorption maximum is, setting by setting: (in CCO) 600 nm; (in O) 590 nm.
For `CC(C)(C)c1ccc2c(c1)c1cc(C(C)(C)C)cc3c1n2-c1cc(-c2ccc(F)cc2)cc2c1B3c1cc(C(C)(C)C)cc3c4cc(C(C)(C)C)ccc4n-2c13`, the absorption maximum (in Cc1ccccc1) came out at 469.92 nm.
With `CC(C)(C)c1ccc(-n2c(-c3ccc(N(c4ccc(-c5ccc(N(c6ccc(-c7nc8c9ccccc9c9ccccc9c8n7-c7ccc(C(C)(C)C)cc7)cc6)c6ccc(-c7nc8c9ccccc9c9ccccc9c8n7-c7ccc(C(C)(C)C)cc7)cc6)cc5)cc4)c4ccc(-c5nc6c7ccccc7c7ccccc7c6n5-c5ccc(C(C)(C)C)cc5)cc4)cc3)nc3c4ccccc4c4ccccc4c32)cc1`, under “in ClCCl”, the absorption maximum is recorded as 377 nm.
For the molecule `CC(C)(C)c1ccc(C#Cc2cc3c(C#Cc4ccc(C(C)(C)C)cc4)c(C#Cc4ccc(C(C)(C)C)cc4)c4cc(C#Cc5ccc(C(C)(C)C)cc5)cc5c(C#Cc6ccc(C(C)(C)C)cc6)c(C#Cc6ccc(C(C)(C)C)cc6)c(c2)c3c45)cc1`, for the setting “in ClCCl”, the absorption maximum was 414 nm.
`Cc1cc(C)c(B(c2ccc(C#Cc3cc4ccc5cc(C#Cc6ccc(B(c7c(C)cc(C)cc7C)c7c(C)cc(C)cc7C)cc6)cc6ccc(c3)c4c56)cc2)c2c(C)cc(C)cc2C)c(C)c1` had an absorption maximum (in Cc1ccccc1) of 414 nm.
Regarding `CCCC[Si](C)(C)c1cccc2ccccc12`, where the note is “in C1CCCCC1”, the absorption maximum stood at 294 nm.
For `Cc1ccc(/C2=c3\cc/c(o3)=C(\c3ccc(C)cc3)c3ccc([nH]3)-c3ccc4n3[B-](F)(F)[N+]3=C(C=CC3=C4c3ccco3)c3ccc2[nH]3)cc1`, the absorption maximum (in ClC(Cl)Cl) came out at 722 nm.
Regarding `C1=C(c2ccccc2)B(c2ccccc2)Nc2c1ccc1ccccc21`, the absorption maximum (in C1CCCCC1) worked out at 365 nm.
For the molecule `COc1ccc(C2=Cc3cc4ccccc4cc3P2(=O)c2ccccc2)cc1` (stereo unspecified), the absorption maximum (in ClCCl) is 395 nm.
As for `C#CCn1c2ccccc2c2cc(/C=C/c3cc(C)c4n3[B-](F)(F)[N+]3=C(C)C=C(C)C3=C4c3ccc(I)cc3)ccc21`, the absorption maximum was found to be 579 nm (in CC#N), 589 nm (in CS(C)=O) and 588 nm (in ClC(Cl)Cl).
As to `CC(C)(C)c1ccc2c3c(c4ccc(C(C)(C)C)cc4c2c1)=[N+]1C(=C(c2ccccc2)c2c(Br)c4c5ccc(C(C)(C)C)cc5c5cc(C(C)(C)C)ccc5c4n2[B-]1(F)F)C=3Br`, the absorption maximum is 689 nm (in C1CCCCC1); 686 nm (in C1CCOC1); 682 nm (in CC#N); 691 nm (in Cc1ccccc1); 689 nm (in ClCCl).
For `Oc1ccccc1/C=N/N=C/c1ccccc1O`, the absorption maximum reads like this: (in CC#N) 355 nm; (in CC(C)CCCC(C)CCCC(C)CCCCC(C)CCCC(C)CCCC(C)C) 363 nm; (in CCCCCC) 361 nm; (in CCCCCCCCC) 362 nm; (in CCCCCCCCCCCCCCCC) 363 nm; (in CCCCl) 359 nm. Also, the absorption maximum reads like this: (in CCN(CC)CC) 359 nm; (in CCO) 356 nm; (in CCOCC) 358 nm; (in CO) 355 nm; (in O=C(O)C(F)(F)F) 398 nm; (in OC(C(F)(F)F)C(F)(F)F) 345 nm. Besides, the absorption maximum by setting is: (in OCC(F)(F)F) 350 nm; (in OCCO) 357 nm.
The molecule `CCCCn1c2c(-c3ccc(N(c4ccccc4)c4ccccc4)cc3)cc(C#N)cc2c2cc(C#N)cc(-c3ccc(N(c4ccccc4)c4ccccc4)cc3)c21` gave an absorption maximum (in ClCCl) of 351 nm.
On to `c1cc2c3c(cccc3c1)C(N1CCOCCOCCOCCOCC1)=N2`, for which, where the note is “in CC#N”, the absorption maximum is 427 nm.
In the case of `CCCCCCCCCCn1c(-c2cc(-c3nc4ccc(C)cc4n3CCCCCCCCCC)cc(-c3nc4ccc(C)cc4n3CCCCCCCCCC)c2)nc2ccc(C)cc21`, the absorption maximum (in ClCCl) is 307.5 nm.
In the case of `COc1cc2c(c(OC)c1OC)c1ccc3cccc4c5cccc6oc(=O)c2c(c65)c1c34`, the absorption maximum (in C1CCOC1) is 417 nm.
Consider `CCOC(=O)c1cc(C)n2nc(-c3ccccc3)ccc12`, for which, for the setting “in C1CCCCC1”, the absorption maximum is given as 390 nm.
Regarding `O=C(O)c1ccccc1Nc1ccccc1`, the absorption maximum is, setting by setting: (in C1CCOC1) 353 nm; (in C1COCCO1) 353 nm; (in CC#N) 350 nm; (in CCOC(C)=O) 356 nm; (in CN(C)C=O) 341 nm; (in ClC(Cl)Cl) 357 nm.
For the molecule `COC(=O)/C=C/C=C/C1=[N+]2C(=C(c3c(C)cc(C)cc3C)c3ccc(/C=C/C=C/C(=O)OC)n3[B-]2(F)F)C=C1`, the absorption maximum (in ClCCl) came to 641 nm.
The same measure, in the same setting: with `F[B-]1(F)n2c(c3ccccc3c2-c2ccccc2)C(c2ccccc2)=C2c3ccccc3C(c3ccccc3)=[N+]21` the figure was 631 nm.
For the setting “in CC#N”, `CCCC(=O)c1c(OCOC)c(OCOC)c(C(=O)CCC)c2c1OCO2` yielded an absorption maximum of 332 nm.
`CCCCCCCCCCCCSc1cc2c3c(ccc4c5c(SCCCCCCCCCCCC)cc6c7c(ccc(c1c34)c75)C(=O)N(C1CCCCC1)C6=O)C(=O)N(C1CCCCC1)C2=O` displayed an absorption maximum (in ClC(Cl)Cl) of 574 nm.
For the molecule `CC(C)(C)c1ccc2c(c1)c1cc(C(C)(C)C)ccc1n2-c1ccc(N(c2ccc(-c3ccc(-c4ccc(-c5ccc(N(c6ccc(-n7c8ccc(C(C)(C)C)cc8c8cc(C(C)(C)C)ccc87)cc6)c6ccc(-n7c8ccc(C(C)(C)C)cc8c8cc(C(C)(C)C)ccc87)cc6)cc5)s4)s3)cc2)c2ccc(-n3c4ccc(C(C)(C)C)cc4c4cc(C(C)(C)C)ccc43)cc2)cc1`, the absorption maximum (in ClCCl) was found to be 418 nm.
`O=c1c2cc(S(=O)(=O)Cl)ccc2[nH]c2ccc(S(=O)(=O)Cl)cc12` yielded an absorption maximum (in CS(C)=O) of 399 nm.
For the molecule `Nc1nc(/C=C/c2ccc(N(c3ccccc3)c3ccccc3)cc2)cc(/C=C/c2ccc(N(c3ccccc3)c3ccccc3)cc2)n1`, the absorption maximum is on record as 417 nm (in Cc1ccccc1) and 432 nm (in ClC(Cl)Cl).
`CCN(CC)c1ccc([N+]2=Cc3ccc4c5c(ccc4c3O[B-]2(c2c(F)c(F)c(F)c(F)c2F)c2c(F)c(F)c(F)c(F)c2F)C=[N+](c2ccc(N(CC)CC)cc2)[B-](c2c(F)c(F)c(F)c(F)c2F)(c2c(F)c(F)c(F)c(F)c2F)O5)cc1`: the absorption maximum by setting is: (in C1CCOC1) 559 nm; (in CC#N) 555 nm; (in CC(C)=O) 555 nm; (in Cc1ccccc1) 584 nm; (in ClCCl) 589 nm.
Consider `CN(C)CCNCc1c2ccccc2cc2ccccc12`, for which the absorption maximum was 368 nm (in C1CCCCC1); 366 nm (in C1CCOC1); 365 nm (in CC#N); 365 nm (in CC(C)=O); 366 nm (in CCO); 363 nm (in CN(C)C=O). The absorption maximum is 364 nm (in CO) and 367 nm (in ClC(Cl)Cl).
As to `c1ccn(-c2ccc(-c3cc(-c4ccc(-n5cccc5)cc4)cc(-c4ccc(-n5cccc5)cc4)c3)cc2)c1`, where the note is “in ClCCl”, the absorption maximum is on record as 388.72 nm.
Take `CN1c2ccccc2C(O)(c2ccccc2)c2cc([N+](=O)[O-])ccc21` (stereo unspecified): the absorption maximum is, setting by setting: (in C1CCOC1) 392.4 nm; (in CC#N) 396.9 nm; (in CCO) 393.7 nm; (in CO) 396 nm; (in CS(C)=O) 410 nm; (in Cc1ccccc1) 381.5 nm.
In the case of `N#CCc1ccccc1-c1cc2ccccc2oc1=O`, where the note is “in ClC(Cl)Cl”, the absorption maximum is listed as 318 nm.
The molecule `CCn1c2c(-c3ccc(-c4cccs4)s3)cc(C(C)(C)C)cc2c2cc(C(C)(C)C)cc(-c3ccc(-c4cccs4)s3)c21` displayed an absorption maximum (in ClCCl) of 360 nm.
Regarding `c1ccc2c3c(ccc2c1)-c1cccc2c1c-3cc1ccccc12`, the absorption maximum (in CCCCCCC) stood at 383 nm.
As for `Cc1ccc(C2=C3C=CC(Cl)=[N+]3[B-](F)(F)n3c(Cl)ccc32)cc1`, the absorption maximum was found to be 514 nm (in C1CCCCC1); 511 nm (in C1CCOC1); 508 nm (in CC#N); 509 nm (in CCOC(C)=O); 508 nm (in CO); 516 nm (in Cc1ccccc1). This molecule also came in with an absorption maximum (in ClC(Cl)Cl) of 515 nm.
On to `c1ccc2c(c1)[nH]c1c3[nH]c4ccccc4c3c3nsnc3c21`, for which the absorption maximum stood at 410 nm (in CN(C)C=O), 410 nm (in Cc1ccccc1) and 410 nm (in ClCCl).
In turn, `CCCCCc1c(C(=O)c2ccc3c4c(cccc24)-c2cccc4c2C3CC=C4)c2ccc3cccc4c5cccc6ccc1c(c65)c2c34` (stereo unspecified) registered an absorption maximum (in ClCCl) of 470 nm.
The molecule `c1ccc(N(c2ccccc2)c2ccc(-c3ccc4c(c3)C3(c5cc(-c6ccc(N(c7ccccc7)c7ccccc7)cc6)ccc5O4)c4ccccc4-c4ccccc43)cc2)cc1` displayed an absorption maximum (in ClCCl) of 345 nm.
